Read-outs that look alike come from different tables or passages of the source.
Columns and labels:
ALK2 (aa 147-end) = ALK2 (aa 147-end) (Homo sapiens (Human), UniProt Q04771); experiment: ALK2 HTRF Assay; assay type: biochemical
FGFR2 (UP) = FGFR2 (UP) (Homo sapiens (Human), UniProt P21802); experiment: FGFR Enzymatic Assay, FGFR2 un-phosphorylated
Description: (§1) The inhibitor potency of the exemplified compounds was determined in an enzyme discontinuous assay that measures peptide phosphorylation using FRET measurements to detect product formation. Inhibitors were serially diluted in DMSO and a volume of 0.2 μL was transferred to the wells of a 384-well plate. For the isoforms of FGFR (−1, −2, −3 wild-type and mutant isoforms, −4) including phosphorylated (P) and un-phosphorylated (UP) proteins, a 5 μL/well volume of enzyme diluted in assay buffer (50 mM HEPES, 10 mM MgCl2, 1 mM EGTA, 0.01% Tween-20, 5 mM DTT, pH 7.5) was added to the plate and pre-incubated with inhibitor for 5 to 15 minutes at ambient temperature. Appropriate controls (enzyme blank and enzyme with no inhibitor) were included on the plate. The reaction was initiated by the addition of a 5 μL/well volume containing both biotinylated [sequence] […] The plate was allowed to equilibrate for −10 minutes at ambient temperature before scanning on a PheraStar plate reader (BMG Labtech) instrument.
(§2) Either GraphPad prism or XLfit was used to analyze the data. The IC50 values were derived by fitting the data to a four parameter logistic equation producing a sigmoidal dose-response curve with a variable Hill coefficient. Prism equation: Y=Bottom+(Top−Bottom)/(1+10^((LogIC50−X)*Hill slope)); XLfit equation: Y=(A+((B−A)/(1+((X/C)^D)))) where X is the logarithm of inhibitor concentration and Y is the response.

FGFR1 (UP) = FGFR1 (UP) (Homo sapiens (Human), UniProt P11362); experiment: FGFR Enzymatic Assay, FGFR1 un-phosphorylated
Description: as §1, §2

FGFR3 (UP) = FGFR3 (UP) (Homo sapiens (Human), UniProt P22607); experiment: FGFR Enzymatic Assay, FGFR3 un-phosphorylated
ALK2 = ALK2 (Homo sapiens (Human), UniProt Q04771); experiment: ALK2 Cellular Assay (phospho SMAD1 HTRF, BMP-7 stimulated HeLa cells); assay type: cell-based; conditions: read-out: ALK2 Cellular Assay PSMAD
Description: HeLa cells were cultured in MEM media with 10% FBS. […] HeLa cells were plated in 96 well flat bottomed plate at 50,000 cells per well and incubated overnight. Next day, media was removed and 50 μL of fresh complete media was added. 5 μL compound was added to cells (3 μM final concentration at highest) and incubated for 60 min at 37° C. 200 ng/ml BMP-7 was added and incubated for 30 min at 37° C. After incubation, the media was removed, washed 2×PBS, and proceeded with HTRF kit according to Cisbio HTRF kit instructions for measuring the Phospho SMAD1 (S463/S465). Finally, both the donor and acceptor were added into 384 well plates and incubated at room temperature overnight and the HTRF signal was measured via Pherastar the next day.

FGFR2 (P) = FGFR2 (P) (Homo sapiens (Human), UniProt P21802); experiment: FGFR Enzymatic Assay, FGFR2 phosphorylated; conditions: phosphorylated enzyme, ATP near or below Km
Description: as §1, §2

RT112 cells = experiment: Luminescent Viability Assay (LVA, FGFR3); assay type: cell-based; conditions: Homo sapiens, RT-112, 72 h, 3 days, CellTiter-Glo
Description: RT112 cells were purchased from ATCC (Manassas, Va.) and maintained in RPMI, 10% FBS (Gibco/Life Technologies). To measure the effect of test compounds on the viability of cells, the cells were plated with RPMI 10% FBS (5×10^3 cells/well/in 50 μL) into black 96-well Greiner polystyrene in the presence or absence of 50 μl of a concentration range of test compounds. After 3 days, 100 μl of CellTiter-Glo Reagent (Promega) was added. Luminescence was read with a TopCount (PerkinElmer). IC50 determination was performed by fitting the curve of percent inhibition versus the log of the inhibitor concentration using the GraphPad Prism 5.0 software.

[1] = read-out: ALK2 3 μM IC50, 3 uM ATP
[2] = read-out: ALK2 100 μM IC50, 100 uM ATP
[3] = read-out: ALK2 1 mM IC50, 1 mM ATP
[4] = read-out: FGFR3 (UP) IC50, un-phosphorylated enzyme, ATP near or below Km
[5] = HeLa cells, 200 ng/ml BMP-7, Phospho SMAD1 (S463/S465) HTRF
[6] = read-out: FGFR2 (UP) IC50, un-phosphorylated enzyme, ATP near or below Km
[7] = read-out: FGFR1 (UP) IC50, un-phosphorylated enzyme, ATP near or below Km

FGFR1 (UP), sequence (P11362 22-822): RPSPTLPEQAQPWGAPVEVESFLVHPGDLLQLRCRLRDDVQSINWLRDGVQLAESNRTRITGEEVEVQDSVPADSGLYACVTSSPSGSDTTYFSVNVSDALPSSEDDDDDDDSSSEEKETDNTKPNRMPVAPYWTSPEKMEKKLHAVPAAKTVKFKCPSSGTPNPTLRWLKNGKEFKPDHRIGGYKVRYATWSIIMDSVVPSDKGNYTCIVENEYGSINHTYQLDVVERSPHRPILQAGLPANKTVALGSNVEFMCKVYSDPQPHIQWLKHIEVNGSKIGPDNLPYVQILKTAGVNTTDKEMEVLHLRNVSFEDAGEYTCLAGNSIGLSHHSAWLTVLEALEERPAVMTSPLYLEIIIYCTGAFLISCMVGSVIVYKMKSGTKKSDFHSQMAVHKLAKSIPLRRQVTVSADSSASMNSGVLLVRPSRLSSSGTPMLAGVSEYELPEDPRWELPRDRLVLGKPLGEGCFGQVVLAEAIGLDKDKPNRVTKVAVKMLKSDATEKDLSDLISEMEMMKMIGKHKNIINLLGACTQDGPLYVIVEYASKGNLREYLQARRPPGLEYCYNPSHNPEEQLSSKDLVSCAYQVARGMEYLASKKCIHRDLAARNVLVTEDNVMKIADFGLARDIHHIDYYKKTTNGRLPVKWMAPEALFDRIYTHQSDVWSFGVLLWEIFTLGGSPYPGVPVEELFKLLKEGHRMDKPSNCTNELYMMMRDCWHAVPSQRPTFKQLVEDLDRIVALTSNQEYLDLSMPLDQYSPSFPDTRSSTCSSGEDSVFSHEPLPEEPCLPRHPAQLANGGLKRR
FGFR3 (UP), sequence (P22607 23-806): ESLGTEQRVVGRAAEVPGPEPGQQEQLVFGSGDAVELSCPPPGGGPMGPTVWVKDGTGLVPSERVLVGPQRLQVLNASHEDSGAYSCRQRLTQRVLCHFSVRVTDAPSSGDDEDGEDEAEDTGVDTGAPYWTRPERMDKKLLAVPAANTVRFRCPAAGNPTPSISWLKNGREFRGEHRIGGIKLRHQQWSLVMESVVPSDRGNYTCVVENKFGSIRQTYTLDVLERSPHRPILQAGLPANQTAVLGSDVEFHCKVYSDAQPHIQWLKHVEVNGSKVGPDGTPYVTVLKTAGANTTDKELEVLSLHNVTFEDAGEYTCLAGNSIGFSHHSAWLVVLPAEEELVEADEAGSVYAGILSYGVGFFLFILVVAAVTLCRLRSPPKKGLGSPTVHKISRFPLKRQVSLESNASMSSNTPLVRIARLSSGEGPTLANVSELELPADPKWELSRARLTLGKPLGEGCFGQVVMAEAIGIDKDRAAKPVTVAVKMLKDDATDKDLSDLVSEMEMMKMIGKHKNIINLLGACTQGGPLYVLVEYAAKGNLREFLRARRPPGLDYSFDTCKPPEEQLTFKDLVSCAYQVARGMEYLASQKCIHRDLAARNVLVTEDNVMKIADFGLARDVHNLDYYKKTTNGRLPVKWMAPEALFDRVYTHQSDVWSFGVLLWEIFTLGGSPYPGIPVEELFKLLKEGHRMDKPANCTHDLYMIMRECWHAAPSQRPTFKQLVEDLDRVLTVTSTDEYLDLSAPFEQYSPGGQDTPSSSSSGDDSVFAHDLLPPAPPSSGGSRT
FGFR2 (UP), sequence (P21802 22-821): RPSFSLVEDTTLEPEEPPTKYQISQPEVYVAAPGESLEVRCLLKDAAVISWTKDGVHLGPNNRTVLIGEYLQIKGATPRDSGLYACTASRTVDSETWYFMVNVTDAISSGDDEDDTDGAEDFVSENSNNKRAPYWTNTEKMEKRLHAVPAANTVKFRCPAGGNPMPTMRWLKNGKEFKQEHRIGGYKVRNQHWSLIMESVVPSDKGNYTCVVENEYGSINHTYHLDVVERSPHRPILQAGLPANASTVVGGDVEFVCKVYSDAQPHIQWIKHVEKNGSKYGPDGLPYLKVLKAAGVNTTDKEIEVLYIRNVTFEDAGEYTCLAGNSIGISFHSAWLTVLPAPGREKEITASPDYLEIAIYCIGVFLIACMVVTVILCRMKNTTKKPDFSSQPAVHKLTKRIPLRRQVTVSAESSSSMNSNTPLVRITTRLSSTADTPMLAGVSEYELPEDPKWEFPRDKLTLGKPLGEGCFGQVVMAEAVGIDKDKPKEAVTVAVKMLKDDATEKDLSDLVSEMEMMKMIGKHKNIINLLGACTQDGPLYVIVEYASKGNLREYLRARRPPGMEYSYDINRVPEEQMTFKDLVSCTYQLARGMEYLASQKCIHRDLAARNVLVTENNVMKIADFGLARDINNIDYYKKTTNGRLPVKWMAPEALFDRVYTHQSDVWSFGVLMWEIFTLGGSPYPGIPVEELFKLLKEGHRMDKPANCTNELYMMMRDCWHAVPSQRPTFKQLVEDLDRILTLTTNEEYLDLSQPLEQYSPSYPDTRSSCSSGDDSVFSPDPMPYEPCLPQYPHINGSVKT
FGFR2 (P), sequence (P21802 22-821): as above
ALK2 (aa 147-end), sequence (Q04771 147-509): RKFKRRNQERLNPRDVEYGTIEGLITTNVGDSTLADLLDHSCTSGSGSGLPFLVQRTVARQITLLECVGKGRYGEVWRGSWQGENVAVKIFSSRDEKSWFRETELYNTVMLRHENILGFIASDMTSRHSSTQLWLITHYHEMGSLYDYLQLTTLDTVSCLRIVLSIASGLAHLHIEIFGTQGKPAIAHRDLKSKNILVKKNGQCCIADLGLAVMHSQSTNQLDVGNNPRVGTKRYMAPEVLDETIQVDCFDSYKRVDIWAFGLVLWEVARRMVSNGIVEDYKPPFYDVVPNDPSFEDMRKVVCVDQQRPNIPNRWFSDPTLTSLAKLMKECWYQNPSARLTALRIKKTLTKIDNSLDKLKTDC
ALK2, sequence (Q04771 21-509): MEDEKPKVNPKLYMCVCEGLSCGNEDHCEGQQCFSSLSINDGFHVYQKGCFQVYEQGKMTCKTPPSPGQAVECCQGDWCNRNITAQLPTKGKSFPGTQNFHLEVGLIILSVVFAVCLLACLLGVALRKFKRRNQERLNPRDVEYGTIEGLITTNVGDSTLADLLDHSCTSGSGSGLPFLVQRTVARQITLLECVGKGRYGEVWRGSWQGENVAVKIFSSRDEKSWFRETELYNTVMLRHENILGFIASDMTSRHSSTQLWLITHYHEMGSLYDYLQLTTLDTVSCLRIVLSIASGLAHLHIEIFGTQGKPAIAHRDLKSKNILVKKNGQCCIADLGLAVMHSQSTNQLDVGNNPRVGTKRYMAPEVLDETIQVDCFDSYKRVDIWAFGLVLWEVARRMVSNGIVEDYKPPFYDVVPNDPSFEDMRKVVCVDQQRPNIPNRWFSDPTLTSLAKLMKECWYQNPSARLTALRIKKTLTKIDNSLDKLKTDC

Compound	IC50 (ALK2 (aa 147-end); [1])	IC50 (ALK2 (aa 147-end); [2])	IC50 (FGFR2 (UP))	IC50 (FGFR1 (UP))	IC50 (FGFR3 (UP); [4])	IC50 (ALK2; [5])	IC50 (ALK2 (aa 147-end); ALK2 3 μM IC50, 3 uM ATP)	IC50 (ALK2 (aa 147-end); ALK2 100 μM IC50, 100 uM ATP)	IC50 (RT112 cells)	also measured
C[C@@H]1CN(c2ccc(-c3n[nH]c4cnc(N5[C@@H]6CC[C@H]5CN(C(=O)C5CC5)C6)nc34)cn2)CCN1 [Example 13, Cyclopropyl((1R,5S)-8-(3-(6-((R)-3-methylpiperazin-1-yl)pyridin-3-yl)-1H-pyrazolo[4,3-d]pyrimidin-5-yl)-3,8-diazabicyclo[3.2.1]octan-3-yl)methanone]	< 100 nM	< 100 nM	100 to 500 nM	500 to 2000 nM						IC50 (ALK2 (aa 147-end); ALK2 1 mM IC50, 1 mM ATP): 100 to 500 nM; IC50 (FGFR3 (UP)): 100 to 500 nM; IC50 (ALK2): 100 to 500 nM
C[C@@H]1CN(c2ccc(-c3n[nH]c4cnc(N5CC6CCC5CN6C(=O)N5CCCC5)nc34)cn2)CCN1 (stereo partly drawn) [Example 20, (5-(3-(6-((R)-3-Methylpiperazin-1-yl)pyridin-3-yl)-1H-pyrazolo[4,3-d]pyrimidin-5-yl)-2,5-diazabicyclo[2.2.2]octan-2-yl)(pyrrolidin-1-yl)methanone]	< 100 nM	< 100 nM	500 to 2000 nM	500 to 2000 nM	> 2000 nM	100 to 500 nM				IC50 (ALK2 (aa 147-end); ALK2 1 mM IC50, 1 mM ATP): 100 to 500 nM
CNC(=O)c1ccc(-c2n[nH]c3cnc(N4[C@H](C)CN(C(=O)OC)C[C@@H]4C)nc23)cc1 [Example 26, Methyl (3R,5S)-3,5-dimethyl-4-(3-(4-(methylcarbamoyl)phenyl)-1H-pyrazolo[4,3-d]pyrimidin-5-yl)piperazine-1-carboxylate]	< 100 nM		100 to 500 nM	500 to 2000 nM						IC50 (ALK2 (aa 147-end); [3]): > 2000 nM; IC50 (FGFR3 (UP)): 100 to 500 nM
COC(=O)N1C[C@@H](C)N(c2ncc3[nH]nc(-c4ccc(N5CCN[C@H](C)C5)nc4)c3n2)[C@@H](C)C1 [Example 17, Methyl (3R,5S)-3,5-dimethyl-4-(3-(6-((R)-3-methylpiperazin-1-yl)pyridin-3-yl)-1H-pyrazolo[4,3-d]pyrimidin-5-yl)piperazine-1-carboxylate]	< 100 nM	< 100 nM			< 100 nM	< 100 nM				IC50 (ALK2 (aa 147-end); [3]): < 100 nM; IC50 (FGFR2 (UP); [6]): < 100 nM
C[C@@H]1CN(c2ccc(-c3n[nH]c4cnc(N5C[C@@H]6C[C@H]5CN6C(=O)N5CCCC5)nc34)cn2)CCN1 [Example 21, ((1S,4S)-5-(3-(6-((R)-3-Methylpiperazin-1-yl)pyridin-3-yl)-1H-pyrazolo[4,3-d]pyrimidin-5-yl)-2,5-diazabicyclo[2.2.1]heptan-2-yl)(pyrrolidin-1-yl)methanone]	< 100 nM	< 100 nM			> 2000 nM	500 to 2000 nM				IC50 (ALK2 (aa 147-end); ALK2 1 mM IC50, 1 mM ATP): 100 to 500 nM; IC50 (FGFR2 (UP); [6]): > 2000 nM; IC50 (FGFR1 (UP); [7]): > 2000 nM
COC(=O)N1C[C@@H](C)N(c2ncc3[nH]nc(-c4ccc(C5CCN(CCO)C5)cc4)c3n2)[C@@H](C)C1 (stereo partly drawn) [Example 28, Methyl (3R,5S)-4-(3-(4-(1-(2-hydroxyethyl)pyrrolidin-3-yl)phenyl)-1H-pyrazolo[4,3-d]pyrimidin-5-yl)-3,5-dimethylpiperazine-1-carboxylate]	< 100 nM	< 100 nM	100 to 500 nM	500 to 2000 nM		< 100 nM				
COC(=O)N1C[C@@H](C)N(c2ncc3[nH]nc(-c4ccc(N5CCN(C(C)CO)CC5)cc4)c3n2)[C@@H](C)C1 (stereo partly drawn) [Example 29, Methyl (3R,5S)-4-(3-(4-(4-(1-hydroxypropan-2-yl)piperazin-1-yl)phenyl)-1H-pyrazolo[4,3-d]pyrimidin-5-yl)-3,5-dimethylpiperazine-1-carboxylate]	< 100 nM	< 100 nM	500 to 2000 nM			< 100 nM				
CN1CC2CCC(C1=O)N2c1ncc2[nH]nc(-c3cnn(-c4ccc5nccn5c4)c3)c2n1 (stereo not shown) [Example 75, 8-(3-(1-(Imidazo[1,2-a]pyridin-6-yl)-1H-pyrazol-4-yl)-1H-pyrazolo[4,3-d]pyrimidin-5-yl)-3-methyl-3,8-diazabicyclo[3.2.1]octan-2-one]					< 100 nM		500 to 2000 nM	500 to 2000 nM	500 to 2000 nM	IC50 (FGFR2 (P); read-out: FGFR2 (P) IC50): < 100 nM; IC50 (FGFR1 (UP); [7]): < 100 nM
CN1CC2CCC(C1=O)N2c1ncc2[nH]nc(-c3cnn(Cc4ccncc4)c3)c2n1 (stereo not shown) [Example 59, 3-Methyl-8-(3-(1-(pyridin-4-ylmethyl)-1H-pyrazol-4-yl)-1H-pyrazolo[4,3-d]pyrimidin-5-yl)-3,8-diazabicyclo[3.2.1]octan-2-one]				100 to 500 nM	< 100 nM		500 to 2000 nM	500 to 2000 nM	500 to 2000 nM	IC50 (FGFR2 (P); read-out: FGFR2 (P) IC50): < 100 nM
Cn1cc(-c2n[nH]c3cnc(N4C5CCC4C(=O)N(CCF)C5)nc23)cn1 (stereo not shown) [Example 51, 3-(2-Fluoroethyl)-8-(3-(1-methyl-1H-pyrazol-4-yl)-1H-pyrazolo[4,3-d]pyrimidin-5-yl)-3,8-diazabicyclo[3.2.1]octan-2-one]				100 to 500 nM	< 100 nM		100 to 500 nM	500 to 2000 nM	500 to 2000 nM	IC50 (FGFR2 (P); FGFR2 (P) IC50 (nM)): 100 to 500 nM

Now from value to compound, other results behind:

IC50 (ALK2 (aa 147-end); [1])	IC50 (ALK2 (aa 147-end); [2])	IC50 (FGFR2 (UP))	IC50 (FGFR1 (UP))	IC50 (FGFR3 (UP); [4])	IC50 (ALK2; [5])	Compound	IC50 (ALK2 (aa 147-end); ALK2 3 μM IC50, 3 uM ATP)	IC50 (ALK2 (aa 147-end); ALK2 100 μM IC50, 100 uM ATP)	IC50 (RT112 cells)	also measured
< 100 nM	< 100 nM	100 to 500 nM	100 to 500 nM	< 100 nM	< 100 nM	COC(=O)N1C[C@@H](C)N(c2ncc3[nH]nc(-c4ccc(N5CCN(C)[C@H](C)C5)nc4)c3n2)[C@@H](C)C1 [Example 33, Methyl (3R,5S)-4-(3-(6-((R)-3,4-dimethylpiperazin-1-yl)pyridin-3-yl)-1H-pyrazolo[4,3-d]pyrimidin-5-yl)-3,5-dimethylpiperazine-1-carboxylate]				IC50 (ALK2 (aa 147-end); [3]): < 100 nM
< 100 nM	< 100 nM	100 to 500 nM			< 100 nM	COC(=O)N1C[C@@H](C)N(c2ncc3[nH]nc(-c4ccc(N5CCN(C(C)(C)C(=O)O)CC5)cc4)c3n2)[C@@H](C)C1 [Example 31, 2-(4-(4-(5-((2R,6S)-4-(Methoxycarbonyl)-2,6-dimethylpiperazin-1-yl)-1H-pyrazolo[4,3-d]pyrimidin-3-yl)phenyl)piperazin-1-yl)-2-methylpropanoic acid]				
		500 to 2000 nM			500 to 2000 nM	COC(=O)N1C[C@@H](C)N(c2ncc3[nH]nc(-c4ccc(N5CCC(O)CC5)cc4)c3n2)[C@@H](C)C1 [Example 34, Methyl (3R,5S)-4-(3-(4-(4-hydroxypiperidin-1-yl)phenyl)-1H-pyrazolo[4,3-d]pyrimidin-5-yl)-3,5-dimethylpiperazine-1-carboxylate]	100 to 500 nM			IC50 (ALK2 (aa 147-end); [3]): > 2000 nM; IC50 (FGFR1 (UP); [7]): > 2000 nM
			500 to 2000 nM	< 100 nM		Cn1cc(-c2n[nH]c3cnc(N4CCc5ncccc5C4)nc23)cn1 [Example 40, 6-(3-(1-Methyl-1H-pyrazol-4-yl)-1H-pyrazolo[4,3-d]pyrimidin-5-yl)-5,6,7,8-tetrahydro-1,6-naphthyridine]	500 to 2000 nM	500 to 2000 nM	500 to 2000 nM	IC50 (FGFR2 (P); FGFR2 (P) IC50 (nM)): 100 to 500 nM
< 100 nM	< 100 nM	100 to 500 nM			100 to 500 nM	COC(=O)N1C[C@@H](C)N(c2ncc3[nH]nc(-c4ccc(N5CCN(C6CCOCC6)CC5)cc4)c3n2)[C@@H](C)C1 [Example 30, Methyl (3R,5S)-3,5-dimethyl-4-(3-(4-(4-(tetrahydro-2H-pyran-4-yl)piperazin-1-yl)phenyl)-1H-pyrazolo[4,3-d]pyrimidin-5-yl)piperazine-1-carboxylate]				
			100 to 500 nM	< 100 nM		Cn1cc(-c2n[nH]c3cnc(N4CCc5cn[nH]c5C4)nc23)cn1 [Example 44, 3-(1-Methyl-1H-pyrazol-4-yl)-5-(1,4,5,7-tetrahydro-6H-pyrazolo[3,4-c]pyridin-6-yl)-1H-pyrazolo[4,3-d]pyrimidine]	500 to 2000 nM	500 to 2000 nM	500 to 2000 nM	IC50 (FGFR2 (P); read-out: FGFR2 (P) IC50): < 100 nM

Reference: patent US11111247B2, “Pyrazolopyrimidine compounds and uses thereof” (Incyte Corporation, priority 2018, dated 2021)
